Data published in patent US4835185A, “Immunomodulator for improving commercial performance of domestic animals” (Iowa State University Research Foundation, Inc., priority 1987, dated 1989).

Legend:
[1] = Feeding of calcium versus sodium KIC to ruminants; assay type: in vivo, ruminants such as cattle and sheep
[2] = Water solubility of KIC salts; assay type: physicochemical; details: vs ammonium and alkali metal salts
[3] = design: species or system pigs; details: pig, in vivo
Source text: (§1) In experiment 1, sixteen female pigs weighing 20-30 kg were used. Seven days before study, catheters were surgically placed in the right atria for blood sampling. Animals were housed in individual cages during the recovery period and had free access to water. Preceding the experiment, animals were fed twice daily a basal diet (2% of body weight per feeding). The basal diet consisted of a corn-soybean mix, adequate in all minerals and vitamins and containing approximately 14% crude protein. Test meals were formulated by additions to a basal diet. Five animals received the basal diet (control); five animals received the leucine meal, which had 2% leucine added to the basal diet; and six animals received the KIC diet, which had 2% KIC (sodium salt equivalent to 1.7% free acid) added to the basel diet. Studies were begun between 0800 and 0900 h after a 24-hr fast. Basal blood samples were taken at -20, -10 and -5 min. Animals were then offered 100 g of their respective test meal (time 0). Pigs were included in the study only if they consumed the entire meal in the first 20 min. Blood was sampled every 30 min from 120 to 240 min. Plasma was separated, Trasylol (FBA Pharmaceuticals, New York, NY) added (50 ul/ml), and plasma stored at -70 C. until analyzed.
(§2) Cortisol was measured by coated tube kits (Gammacoat, Travenol-Genetech Diagnostics, Cambridge, MA). Leucine and KIC were measured by high pressure liquid chromatography. Crystalline leucine was obtained from Sigma Chemical (St. Louis, MO) and KIC-sodium was obtained from SOBAC (Paris, France). Statistical analysis of the individual pig responses was conducted on mean plasma concentrations before the meal (-20 to 0 min) and after the meal (120 to 240 min). When the overall treatment F-value was significant, differences between individual treatments were determined using the pooled SEM and a T-test.

plasma cortisol = experiment: Plasma cortisol in pigs after test meals; assay type: in vivo
Protocol: To determine if KIC could acutely alter cortisol concentrations, young pigs were fed meals supplemented with leucine or KIC and plasma cortisol was measured.
as §1, with “Blood was sampled every 30 min from 120 to 240 min.” left out
as §2

| Plasma KIC, Change [3] [µM] | Plasma leucine, Change [3] [µM] | increase of plasma leucine concentration [3] [fold] | Plasma KIC, Post ([3]; 240 min) [µM] | Plasma leucine, Post ([3]; 240 min) [µM] | Compound | effectiveness relative to sodium salt [1] | water solubility [2] | Plasma cortisol, Change (plasma cortisol; 2% in meal, control -0.09) [µg/dL] | Plasma cortisol, Post (plasma cortisol; 2% in meal, pre: leucine 2.8, KIC 4.7, pooled SEM 0.49) [µg/dL] | change in plasma cortisol (plasma cortisol; 2% leucine in meal, nonsignificant) [%] |
| --- | --- | --- | --- | --- | --- | --- | --- | --- | --- | --- |
| – | – | – | – | – | CC(C)CC(=O)C(=O)O [Ca-KIC] | generally comparably effective with the sodium salt | less water-soluble | – | – | – |
| 66 | 518 | 4 | 90 | 664 | CC(C)C[C@H](N)C(=O)O [leucine, reference compound] | – | – | -0.48 | 2.4 | -14 |
